These results are taken from patent publication US5719287A, “Intermediates for inhibitors of HIV protease and method of preparation thereof” (Eli Lilly and Company, priority 1995, dated 1998).

Read-outs that look alike come from different tables or passages of the source.

The assay concerns the target T1, HIV-1 protease (Human immunodeficiency virus type 1 group M subtype B, UniProt P04585).
T1 construct: Purified HIV-1 protease was obtained as described below; made in house; host or cells: E. coli K12 L507/pHP10D (NRRL B-18560)
The assay is described as follows: biochemical. The note with it: read-out: Fluorescence Assay IC50 (converted). The procedure: N^α -Biotin-[…]Ne-FITC)-OH
The purified peptide was labeled as follows with a fluorescent marker at the C-terminal end for use in the assay. N^α -Biotin-Gly-Ser-Gln-Asn-Tyr-Pro-lle-Val-Gly-Lys-OH (1.206 g, 0.936 mmoles) was dissolved in 100 mL of 0.1M sodium borate, pH 9.5 with stirring. Then, 3 g of fluorescein isothiocyanate (7.7 mmol) was dissolved in 15 mL dimethyl sulfoxide and the solution added to the reaction in 10 equal portions over the course of a two hour period. The reaction was allowed to proceed for a further one hour after the final addition had been made. The pH of the solution was adjusted to 3 with 5N HCl. A precipitate formed which was removed from the reaction by centrifugation.
Fluorescence HIV-1 Protease Inhibitor Assay Procedure.
To each well of a round bottom, 96-well plate is added 20 μl of the Enzyme Solution followed by 10 μl of the compound to be evaluated in 20% aqueous DMSO. Purified HIV-1 protease was obtained as described below. The solution is incubated for one hour at room temperature and then 20 μl of a solution of the substrate N^α -Biotin-[…]N^e -FITC)-OH, in MES-ALB buffer (1.5 μl/ml) is added to each well. The solutions are incubated for 16 hours at room temperature and thereafter to each well is added 150 μl of MES-ALB buffer.
To each well of a 96-well Pandex plate is added 25 μl of the Avidin Coated Beads Solution. Next, 25 μl of the diluted incubation solutions, described above, are added to each well of the Pandex plate. The solutions are mixed well and the plates are loaded into a Pandex® machine, washed, evacuated and read. Sample detection was performed by excitation at 485 nm and reading the resulting epifluorescence at 535 nm.
A culture of E. coli K12 L507/pHP10D was grown to mid-log phase at 32° C. in LB media containing 12.5 μg/ml tetracycline. The cultivation temperature was quickly elevated to 40° C. to induce gene expression, and the cells were allowed to grow for 2.5 hours at this temperature before the culture was quickly chilled on ice. The cells were centrifuged and the cell pellet was resuspended in 20 ml 50 mmol MES buffer (pH 6.0) containing 1 mmol EDTA, 1 mmol DTT, 1 mmol PMSF, and 10% glycerol (Buffer A). Cells were lysed by sonication using a Fischer Model 300 Dismembrator and a microtip probe. […] Enzymatic activity was measured by HPLC using the synthetic peptide SQNYPIV as described in Margolin et al., Biochem. Biophys. Res. Commun., 167, 554-560 (1990); the production of the pl peptide (SQNY) was measured.
Active fractions were pooled, made 1.2M in ammonium sulfate, and applied to a hexyl agarose column (2.0×18 cm) equilibrated in Buffer A containing 1.2M ammonium sulfate. The sample, in 125 ml (1.85 mg/ml), was loaded at a flow rate of 1 ml/min at 4° C. […] The column was then washed isocratically in Buffer A for 120 min. Active fractions were pooled, concentrated to 10 ml using an Amicon stirred cell with a YM-10 membrane, and applied at 1 ml/min to a MonoS cation exchange column (1.0×10 cm) equilibrated in Buffer A. After washing isocratically for 30 min, protease was eluted using a linear gradient of 0-0.45M NaCl in Buffer A over 40 min followed by an isocratic wash with Buffer A containing 0.45M NaCl over 30 min. Chromatography was performed at 25° C.
Pooled active fractions were concentrated to 200 ul using an Amicon stirred cell and a YM-10 membrane, and the protease was then applied to a Superose 6 size exclusion column equilibrated in Buffer A containing 0.1M NaCl. The column was washed isocratically in this buffer at a flow rate of 0.5 ml/min.

Setting [1] is: purified HIV-1 protease, MES-ALB buffer pH 5.5, 1 h preincubation, 16 h with substrate, room temperature, IC50 values for Examples 2-70 are standardized relative to Ex 1.

By IC50 is commonly meant the concentration that gives 50% inhibition. `CC(C)(C)NC(=O)c1ccccc1C[C@@H](O)[C@H](Cc1ccccc1)NC(=O)[C@H](CC(N)=O)NC(=O)c1ccc2ccccc2c1` [Example 19, [1S-(1R*, 4R*, 5S*)]-N-(1-(2-amino-2-oxoethyl)-2-oxo-3-aza-4-phenylmethyl-5-hydroxy-6-(2-(1-t-butylamino-1-oxomethyl)phenyl)hexyl)-2-naphthyl carboxamide]: the IC50 is 3.45 nM.
On the same count and under the same terms, the same measure for `CC(C)(C)NC(=O)c1ccccc1C[C@@H](O)[C@H](Cc1ccccc1)NC(=O)[C@H](CC(N)=O)NC(=O)c1cnc2ccccc2n1` [Example 20, [1S-(1R*, 4R*, 5S*)]-N-(1-(2-amino-2-oxoethyl)-2-oxo-3-aza-4-phenylmethyl-5-hydroxy-6-(2-(1-t-butylamino-1-oxomethyl)phenyl)hexyl)-2-quinoxalinyl carboxamide]: 1.15 nM.
Same read-out and setting: with `CC(C)(C)NC(=O)c1ccccc1C[C@@H](O)[C@H](Cc1ccccc1)NC(=O)[C@H](CC(N)=O)NC(=O)c1cc2ccccc2[nH]1` [Example 21, [1S-(1R*, 4R*. 5S*)]-N-(1-(2-amino-2-oxoethyl)-2-oxo-3-aza-4-phenylmethyl-5-hydroxy-6-(2-(1-t-butylamino-1-oxomethyl)phenyl)hexyl)-2-indolyl carboxamine] the figure was 4.18 nM; with `CC(C)(C)NC(=O)c1ccccc1C[C@@H](O)[C@H](Cc1ccccc1)NC(=O)[C@H](CC(N)=O)NC(=O)c1cc2ccccc2s1` [Example 22, [1S-(1R*, 4R*, 5S*)]-N-(1-(2-amino-2-oxoethyl)-2-oxo-3-aza-4-phenylmethyl-5-hydroxy-6-(2-(1-t-butylamino-1-oxomethyl)phenyl)hexyl)-2-benzo[b]thienyl carboxamide], 10.7 nM.
On the same count and under the same terms, with `Cc1ccc2ccc(C(=O)N[C@@H](CC(N)=O)C(=O)N[C@@H](Cc3ccccc3)[C@H](O)Cc3ccccc3C(=O)NC(C)(C)C)nc2c1` [Example 23, [1S-(1R*, 4R*, 5S*)]-N-(1-(2-amino-2-oxoethyl)-2-oxo-3-aza-4-phenylmethyl-5-hydroxy-6-(2-(1-t-butylamino-1-oxomethyl)phenyl)hexyl)-7-methylquinolin-2-yl carboxamide] the figure was 0.641 nM; with `Cc1cccc2ccc(C(=O)N[C@@H](CC(N)=O)C(=O)N[C@@H](Cc3ccccc3)[C@H](O)Cc3ccccc3C(=O)NC(C)(C)C)nc12` [Example 24, [1S-(1R*, 4R*, 5S*)]-N-(1-(2-amino-2-oxoethyl)-2-oxo-3-aza-4-phenylmethyl-5-hydroxy-6-(2-(1-t-butylamino-1-oxomethyl)phenyl)hexyl)-8-methylquinolin-2-yl carboxamide], 0.481 nM; with `Cc1cc(C(=O)N[C@@H](CC(N)=O)C(=O)N[C@@H](Cc2ccccc2)[C@H](O)Cc2ccccc2C(=O)NC(C)(C)C)nc2ccccc12` [Example 26, [1S-(1R*, 4R*, 5S*)]-N-(1-(2-amino-2-oxoethyl)-2-oxo-3-aza-4-phenylmethyl-5-hydroxy-6-(2-(1-t-butylamino-1-oxomethyl)phenyl)hexyl)-4-methylquinolin-2-yl carboxamide], 1.12 nM.
With `Cc1cc2ccccc2nc1C(=O)N[C@@H](CC(N)=O)C(=O)N[C@@H](Cc1ccccc1)[C@H](O)Cc1ccccc1C(=O)NC(C)(C)C` [Example 27, [1S-(1R*, 4R*. 5S*) ]-N-(1-(2-amino-2-oxoethyl)-2-oxo-3-aza-4-phenylmethyl-5-hydroxy-6-(2-(1-t-butylamino-1-oxomethyl)phenyl)hexyl)-3-methylquinolin-2-yl carboxamide], the IC50 is 8.18 nM.
Regarding `CC(C)(C)NC(=O)c1ccccc1C[C@@H](O)[C@H](Cc1ccccc1)NC(=O)[C@H](CC(N)=O)NC(=O)c1ccccc1` [Example 28, [1S-(1R*, 4R*, 5S*)]-N-(1-(2-amino-2-oxoethyl)-2-oxo-3-aza-4-phenylmethyl-5-hydroxy-6-(2-(1-t-butylamino-1-oxomethyl)phenyl)hexyl)phenyl carboxamide], the IC50 is 12.5 nM.
The same measure, in the same setting: the same measure for `CC(C)(C)NC(=O)c1ccccc1C[C@@H](O)[C@H](Cc1ccccc1)NC(=O)[C@H](CC(N)=O)NC(=O)c1ccccn1` [Example 29, [1S-(1R*, 4R*, 5S*)]-N-(1-(2-amino-2-oxoethyl)-2-oxo-3-aza-4-phenylmethyl-5-hydroxy-6-(2-(1-t-butylamino-1-oxomethyl)phenyl)hexyl)-2-pyridyl carboxamide]: 129 nM; for `CC(C)(C)NC(=O)c1ccccc1C[C@@H](O)[C@H](Cc1ccccc1)NC(=O)[C@H](CC(N)=O)NC(=O)c1cc2ccccc2cn1` [Example 30, [1S-(1R*, 4R*, 5S*)]-N-(1-(2-amino-2-oxoethyl)-2-oxo-3-aza-4-phenylmethyl-5-hydroxy-6-(2-(1-t-butylamino-1-oxomethyl)phenyl)hexyl)-3-isoquinolinyl carboxamide]: 11.8 nM.
Turning to `CC(C)(C)NC(=O)c1ccccc1C[C@@H](O)[C@H](Cc1ccccc1)NC(=O)[C@H](CC(N)=O)NC(=O)Cc1ccc2ccccc2c1` [Example 31, [1S-(1R*, 4R*, 5S*)]-N-(1-(2-amino-2-oxoethyl)-2-oxo-3-aza-4-phenylmethyl-5-hydroxy-6-(2-(1-t-butylamino-1-oxomethyl)phenyl)hexyl)-2-naphthyl acetamide], the 50% inhibitory concentration (IC50) is 11.4 nM.
For `CC(C)(C)NC(=O)c1ccccc1C[C@@H](O)[C@H](Cc1ccccc1)NC(=O)[C@H](CC(N)=O)NC(=O)COc1ccc2ccccc2n1` [Example 32, [1S-(1R*, 4R*, 5S*)]-N-(1-(2-amino-2-oxoethyl)-2-oxo-3-aza-4-phenylmethyl-5-hydroxy-6-(2-(1-t-butylamino-1-oxomethyl)phenyl)hexyl)-2-quinolinoxy acetamide], the IC50 was 3.75 nM.
With `CC(C)[C@H](NC(=O)c1cnc2ccccc2n1)C(=O)N[C@@H](Cc1ccccc1)[C@H](O)Cc1ccccc1C(=O)NC(C)(C)C` [Example 34, [1S-(1R*, 4R*, 5S*)]-N-(1-(1-methylethyl)-2-oxo-3-aza-4-phenylmethyl-5-hydroxy-6-(2-(1-t-butylamino-1-oxomethyl)phenyl)hexyl)-2-quinoxalinyl acetamide], the IC50 under setting [1] was 7.55 nM.
The same measure, in the same setting: the same measure for `CC(C)[C@H](NC(=O)c1ccc2ccccc2c1)C(=O)N[C@@H](Cc1ccccc1)[C@H](O)Cc1ccccc1C(=O)NC(C)(C)C` [Example 35]: 131 nM.
`CCC(C)[C@H](NC(=O)OCc1ccc2ccccc2n1)C(=O)N[C@@H](Cc1ccccc1)[C@H](O)Cc1ccccc1C(=O)NC(C)(C)C` (stereo partly drawn) [Example 38, [2R-(2R*, 3S*, 6S*)]-N-t-butyl-2-(2-hydroxy-3-phenylmethyl-4-aza-5-oxo-6-(1-methylpropyl)-6-(N-quinolin-2-ylmethoxycarbonylamino)hexyl)benzamide]: the IC50 was 1.21 nM.
Take `CCC(C)[C@H](NC(=O)N(C)Cc1ccc2ccccc2n1)C(=O)N[C@@H](Cc1ccccc1)[C@H](O)Cc1ccccc1C(=O)NC(C)(C)C` (stereo partly drawn) [Example 39, [2R-(2R*, 3S*, 6S*)]-N-t-butyl-2-(2-hydroxy-3-phenylmethyl-4-aza-5-oxo-6-(1-methylpropyl)-7-aza-8-oxo-8-(N-methyl-N-quinolin-2-ylmethylamino)octyl)benzamide]: the IC50 is 5.06 nM.
Same read-out and setting: with `CC(C)(C)NC(=O)c1occc1C[C@@H](O)[C@H](Cc1ccccc1)NC(=O)[C@H](CC(N)=O)NC(=O)c1ccc2ccccc2n1` [Example 40, [1S-(1R*, 4R*, 5S*)]-N-(1-(2-amino-2-oxoethyl)-2-oxo-3-aza-4-phenylmethyl-5-hydroxy-6-(2-(1-t-butylamino-1-oxomethyl)fur-3-yl)hexyl)-2-quinolinyl carboxamide] the figure was 46.7 nM.
